Assay results reported in article PMC7324897 (Dose-Response, 2020).
Entries after “also recorded” stand apart in the source; their conditions may differ.

Experiments:
BChE (from human serum) = BChE (from human serum) (Homo sapiens, UniProt P06276); assay: In vitro cholinesterase inhibition assay; format: biochemical
BChE = BChE (Homo sapiens, UniProt P06276); assay: Kinetic study of BChE inhibition; format: biochemical
Sequence of BChE (P06276 29-602): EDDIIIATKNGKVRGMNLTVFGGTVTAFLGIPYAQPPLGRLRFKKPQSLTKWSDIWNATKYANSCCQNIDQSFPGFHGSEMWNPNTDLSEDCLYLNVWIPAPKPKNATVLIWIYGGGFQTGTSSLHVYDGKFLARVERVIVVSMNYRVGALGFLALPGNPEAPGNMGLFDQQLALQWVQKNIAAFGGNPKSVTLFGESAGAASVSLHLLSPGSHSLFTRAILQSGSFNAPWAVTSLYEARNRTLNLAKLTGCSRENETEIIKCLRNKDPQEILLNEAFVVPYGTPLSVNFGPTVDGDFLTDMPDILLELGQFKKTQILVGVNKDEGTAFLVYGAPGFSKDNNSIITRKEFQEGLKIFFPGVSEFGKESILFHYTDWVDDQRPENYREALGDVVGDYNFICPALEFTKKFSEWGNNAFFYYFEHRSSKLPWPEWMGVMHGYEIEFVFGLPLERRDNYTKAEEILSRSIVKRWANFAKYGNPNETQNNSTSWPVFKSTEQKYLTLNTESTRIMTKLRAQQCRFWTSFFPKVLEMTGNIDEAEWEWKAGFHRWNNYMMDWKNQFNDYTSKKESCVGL

Sequence of BChE (from human serum) (P06276 29-602): as above

Structure (SMILES): O=C1CN(C(=O)CCn2ccnc2)CC(O)CN1CCc1ccccc1 (centres unmarked) [Compound 5, 4-(3-(1H-imidazol-1-yl)propanoyl)-6-hydroxy-1-phenethyl-1,4-diazepan-2-one]
- IC50 (BChE (from human serum)): 1400 nM
- inhibition at 10 µM (BChE (from human serum); read-out: BChE IR (%), inhibition ratio): 66%
- Ki (BChE): 540 ± 70 nM
- Type of BChE inhibition (BChE): mixed-type inhibitor; also recorded: mixed-type inhibition
- Inhibition constant Ki, uncompetitive part (Kiu) (BChE; substrate BTC 90-904 μM): 2900 ± 1000 nM
